This is an account of results in patent US9018199B2, “Transition metal complexes for inhibiting resistance in the treatment of cancer and metastasis” (Ecole Polytechnique Federale de Lausanne (EPFL), priority 2006, dated 2015).

Where “and” joins values, the source holds several entries; their conditions need not be identical. Equal entries are not always repeated. Where two headings read alike, the source gives them in different places.

The subject of experiment [1] is HT-29 colon carcinoma cell line. Nature of the experiment: Cell growth proliferation inhibition, MTT assay, HT29. Conditions: 72 hours exposure. It is filed as cell-based, human. As to the method:
(§1) When the cell are confluent, they are trypsinised and seeded in 48-well plates as monolayers for 24 h. […] The media is removed from the cell plates are the drug solutions applied in triplicate. A set of control cells, with media containing 1.0% DMSO, was left on each plate. The cells were exposed to the drugs for 72 hours. For […], (8) and (9), the Ru compounds are weighed, and dissolved directly in medium to 1600 μM, then serially diluted to make up 800 μ[…] solutions. Cell viability was determined using the standard MTT assay protocol, which allows the quantification of the mitochondrial activity in metabolically active cells. MTT (final concentration 0.2 mg/ml) was added to the cells for 2 h, then the culture medium was aspirated and the violet formazan precipitate dissolved in 0.1 N HCl in 2-propanol. The optical density, which is directly proportional to number of surviving cells, was quantified at 540 nm using a multiwell plate reader and the fraction of surviving cells was calculated from the absorbance of untreated control cells. Using the above protocol, the compounds were tested against human T47D and MCF-7 breast carcinoma, A549 lung carcinoma and HT-29 colon carcinoma cell lines (see FIG. 7).
Background: Tetrazolium assays rely on reduction of a dye to a coloured formazan, in cell work by metabolically active cells.

For experiment [2], the system named is A549 lung carcinoma cell line. Nature of the experiment: Cell growth proliferation inhibition, MTT assay, A549. It is filed as cell-based, human. To be noted: A549 cells, 72 hours exposure. Here is the method:
as §1

Experiment [3] relates to T47D breast carcinoma cell line. Nature of the experiment: Cell growth proliferation inhibition, MTT assay, T47D. It is filed as cell-based, human. Conditions: T47D cells, 72 hours exposure. Here is the method: as §1
Experiment [4] has as its system MCF-7 breast carcinoma cell line. Nature of the experiment: Cell growth proliferation inhibition, MTT assay, MCF7. It is filed as cell-based, human. Conditions: MCF7 cells, 72 hours exposure. Here is the method: as §1
For experiment [5], the system named is Glutathione-S-Transferase. In words: Inhibition of Glutathione-S-Transferase activity in A549 cell lysates (glutathione-CDNB assay). It is filed as biochemical, human. To be noted: A549 lung carcinoma cell lysates exposed to 100 μM drug solution for 90 mins. Here is the method: Human A549 lung carcinoma cells, known to express high levels of Glutathione-S-Transferase, were routinely grown in flasks with DMEM medium containing 4.5 g/l glucose, 10% foetal calf serum (FCS) and antibiotics at 37° C. and 6% CO2. When the cells are confluent, they are trypsinised and concentrated in a centrifuge at 4° C. The cells were then diluted in phosphate-buffer saline (PBS) containing protease inhibitor cocktail (final concentration of 1 μg/ml) and homogenised by repeatedly freezing in liquid nitrogen and thawing (4 cycles). The homogenised cell samples were centrifuged at 4° C. and the supernatant, which is the cell lysates, was separated. The cell lysates are stored at −56° C.
The Ru compounds are weighed, and dissolved in DMSO to 100 mM. […] The cell lysates were exposed to the drug solutions for 90 mins. Control, containing the cell lysates with water/0.1% DMSO was also prepared.
The GST activity in the treated cell lysates was determined using the glutathione-CDNB (1-chloro-2,4-dinitrobenzene) assay. Glutathione and CDNB were dissolved in deionised water and ethanol respectively to make up a 100 mM solutions. A developing solution, containing 50 mM phosphate buffer solution (pH 6.5), was prepared and was added 1% v/v, the 100 mM glutathione and 100 mM CDNB solutions such that their final concentrations are both 1 mM. The developing solution was added to a 96-well plate at 200 μl per well, followed by the treated cell lysates at 2 μl per well. The absorbance at 340 nm was monitored continuously for 5 mins at 15 s intervals. The average slope of the change in absorbance was determined as a fraction of the control as the percentage of residual GST activity.

Experiment [6] relates to MIA-PaCa-2 Human pancreatic cancer. Nature of the experiment: IC50 on tumor cell lines, MTT test, MIA PaCa-2. It is filed as cell-based. To be noted: MIA PaCa-2, 3 days treatment, two separate experiments.
Experimental: (§2) IC50 values are determined as follows: Tumour cells are incubated in the appropriate complete medium at 37° C. and under controlled atmosphere (5% CO2). Test compounds are tested at doses in the range of 100 nM and 100 μM. Cytotoxicity is determined by the MTT test, by measuring cell viability as the cell metabolic capacity to transform the tetrazolium salt of MTT in the blue formazan, by mitochondrial dehydrogenases; the blue colour is read at 570 nm with a spectrophotometer (Alley M C, Scudiero D A, Monks A, Hursey A L, Czerwinski M J, Fine D L, Abbott B J, Mayo J G, Shoemaker R H, Boyd M R. Feasibility of drug screening with panels of human tumor cell lines using a microculture tetrazolium assay. Cancer Res 48: 598-601, 1988. Mosmann T. Rapid colorimetric assay for cellular growth and survival: application to proliferation and cytotoxicity assays. […] Briefly, on day 0, in 96-well plates, 2-4000 cells/well/100 μl complete medium are plated. On day 1, test compounds are added at the test concentrations of 10^−7 M; 3*10^−7 M; 10^−6 M; 3*10^−6 M; 10^−5 M; 3*10^−5M; 10^−4 M. Each concentration is studied in triplicate. Cell viability, as determined by the MTT test is done on Day 4, after 3 days treatment. Each well is added with 10 μl/100 μl MTT (prepared previously by dissolving 5 mg/ml MTT in PBS, sterilized with filters at a cut-off of 0.22 mm and stored at 4° C.). Plates are put in an incubator at 37° C. for 4 hrs, then medium is eliminated and each well is added with 200 μl DMSO (Sigma Chemical Co., USA). Plates are read with a spectrophotometer (Spectra count Packard Bell, Meriden, Conn., USA) at 570 nm wave length. IC50 is calculated with the GraphPad Prism4.
Experiment [7] deals with H460M Human lung carcinoma/metastatic. Nature of the experiment: IC50 on tumor cell lines, MTT test, H460M. It is filed as cell-based. To be noted: 3 days treatment, two separate experiments.
Experimental: as §2
The test system of experiment [8] is A2780 Human ovarian carcinoma. Nature of the experiment: IC50 on tumor cell lines, MTT test, A2780. Conditions: A2780, 3 days treatment, two separate experiments. It is filed as cell-based.
Experimental: as §2
Experiment [9] relates to A2780/CDDP Human ovarian carcinoma resistant to Cistplatin. In words: IC50 on tumor cell lines, MTT test, A2780/CDDP. To be noted: for IC50: read-out: IC50 values A2780/CDDP. It is filed as cell-based. As to the method: Tumor cell lines derived from human and mouse turnours listed below were stabilised for in vitro propagation.
IC50 values are determined as follows: Tumour cells are incubated in the appropriate complete medium at 37° C. and under controlled atmosphere (5% CO2). Test compounds are tested at doses in the range of 100 nM and 100 μM. Cytotoxicity is determined by the MTT test, by measuring cell viability as the cell metabolic capacity to transform the tetrazolium salt of MTT in the blue formazan, by mitochondrial dehydrogenases; the blue colour is read at 570 nm with a spectrophotometer (Alley M C, Scudiero D A, Monks A, Hursey A L, Czerwinski M J, Fine D L, Abbott B J, Mayo J G, Shoemaker R H, Boyd M R. Feasibility of drug screening with panels of human tumor cell lines using a microculture tetrazolium assay. Cancer Res 48: 598-601, 1988. Mosmann T. Rapid colorimetric assay for cellular growth and survival: application to proliferation and cytotoxicity assays. J Immunol Methods 65: 55-63, 1983). Briefly, on day 0, in 96-well plates, 2-4000 cells/well/100 μl complete medium are plated. On day 1, test compounds are added at the test concentrations of 10^−7 M; 3*10^−7 M; 10^−6 M; 3*10^−6 M; 10^−5 M; 3*10^−5M; 10^−4 M. Each concentration is studied in triplicate. Cell viability, as determined by the MTT test is done on Day 4, after 3 days treatment. Each well is added with 10 μl/100 μl MTT (prepared previously by dissolving 5 mg/ml MTT in PBS, sterilized with filters at a cut-off of […] and stored at 4° C.). Plates are put in an incubator at 37° C. for 4 hrs, then medium is eliminated and each well is added with 200 μl DMSO (Sigma Chemical Co., USA). Plates are read with a spectrophotometer (Spectra count Packard Bell, Meriden, Conn., USA) at 570 nm wave length. IC50 is calculated with the GraphPad Prism4.
The reported values are the most representative of two separate experiments.

A further experiment relates to TLX5 Mouse lymphona. Nature of the experiment: IC50 on tumor cell lines, MTT test, TLX5. It is filed as cell-based. To be noted: TLX5, 3 days treatment, two separate experiments.
The test system of experiment [10] is HT-29 Human colorectal carcinoma. Nature of the experiment: IC50 on tumor cell lines, MTT test, HT-29. To be noted: HT-29, 3 days treatment, two separate experiments. It is filed as cell-based.
Experimental: as §2
The test system of a further experiment is TLX5 lymphona cells. Nature of the experiment: Survival time in an in vivo TLX5 lymphoma model. Also on record: species or system CBA brown-grey inbred mice. To be noted: for % increase vs Controls (mean survival time) / Mean survival time (days ± SD): TLX5 cells i.p. day 0 in CBA mice, treatment i.p. at day 3, Compound 3 at 200 mg/kg, Cisplatin 8 mg/kg; for Activity in vivo (in words): TLX5 lymphoma in mice, i.p., compound 3 given as suspension in carboxymethylcellulose. Here is the method: Tumour cells (TLX5, see above in Example 8) were derived from mouse tumours and stabilised for in vivo propagation. For the animal study, TLX5 lymphona cells were injected in the peritoneal cavity of CBA brown-grey inbred mice (Harlan-Nossan, San Giovanni al Natisone, Udine, Italy) at day 0. Test compounds were applied at day 3 at various doses, also by the intraperitoneal route, with each drug (test compound or reference drug) diluted in appropriate physiological solution and injected in a volume of 0.1 ml/10 g body weight.

Setting [11] is: A2780/CDDP (Cisplatin-resistant), 3 days treatment, MTT test, two separate experiments.

Experimental for TLX5 Mouse lymphona: as §2

`Cc1ccc(C(C)C)cc1.[Cl][Ru]([Cl])[PH]12CN3CN(CN(C3)C1)C2` [(η^6-cymene)Ru(PTA)Cl2, reference compound]: the IC50 in experiment [1] (HT29 cells) is 436 µM; in experiment [2] it was 1030 µM; in experiment [3], 1060 µM; in experiment [4], greater than 1600 µM.

As to “[(η^6-cymene)RuCl(PTA)(imidazolium-ethacrynic aide)]BF4^− [Compound 7]”, the IC50 was 64.2 µM in [1] (HT29 cells), 65.1 µM in [2], 5.97 µM in experiment [3] and 19.9 µM in experiment [4]. The “Residual GST activity (% control)” value in [5] is on record as 62.58 ± 8.8 % control.

On to `C1N2CN3CN1CP(C2)C3.C=C(CC)C(=O)c1ccc(OCC(=O)OCCc2ccccc2)c(Cl)c1Cl.[Cl][Ru][Cl]` [Compound 4, (Ethacrynic-η^6:phenylethanoate)Ru(PTA)Cl2], for which the IC50 in experiment [6] was 81.5 to 92.7 µM; in experiment [1] (HT29 cells), 106 µM; in [7], 29.1 to 31.5 µM; in [8] it was roughly 30 µM; in experiment [2], 66.7 µM; in experiment [9] (setting [11]) it was 36.7 to 38.7 µM. Also, the IC50 with TLX5 Mouse lymphona was 3.6 to 4.3 µM; in experiment [3] it was 6.28 µM; in experiment [10], 30 to 32.6 µM; in [4] it was 105 µM. For the same molecule, the “Residual GST activity (% control)” value in [5] was 42.77 ± 13.9 % control. Besides, the “Activity against the Cisplatin-resistant cell line A2780/CDDP (in words)” value in [9] (A2780/CDDP, MTT test) is given as “active”.

In the case of “(η^6-cymene)Ru(PTA)(C6H6O4) [Compound 9]”, the IC50 in experiment [1] (HT29 cells) was 265 µM; in [2] it was 1570 µM; in experiment [3] it was 1090 µM; in experiment [4] it was greater than 1600 µM.

For the molecule “(η^6-cymene)RuCl2(ethacrynic-propylamide-imidazole) [Compound 6]”, the IC50 in experiment [1] (HT29 cells) is 39.1 µM; in [2], 34 µM; in experiment [3], 4.8 µM; in experiment [4], 10.7 µM. Also, in experiment [5], the “Residual GST activity (% control)” value is on record as 23.70 ± 10.7 % control.

In the case of `C=C(CC)C(=O)c1ccc(OCC(=O)O)c(Cl)c1Cl` [Ethacrynic acid, reference compound], the IC50 in [6] (Homo sapiens, 72 h) is greater than 100 µM; in experiment [1] (Homo sapiens, HT-29, HT29 cells), 73.5 µM; in experiment [7] (Homo sapiens, 72 h) it was 58.1 to 63.3 µM; in [8] (Homo sapiens, 72 h), 91.1 to 94.8 µM; in [2] (Homo sapiens), 50.7 µM; in [9] (Homo sapiens, A2780/CDDP, 72 h) it was 84.3 to 97.6 µM. Besides, the IC50 in the experiment on TLX5 Mouse lymphona (Mus musculus, TLX-5, 72 h) was 1.3 to 1.8 µM; in experiment [3] (Homo sapiens) it was 7.73 µM; in [10] (Homo sapiens, 72 h), 35.2 to 44 µM; in [4] (Homo sapiens), 66 µM.

With RAPTA-T, the IC50 is greater than 100 µM in experiment [6]; greater than 100 µM in experiment [7]; greater than 100 µM in experiment [8]; greater than 100 µM in experiment [9] (setting [11]); 64.1 to 92.9 µM in the experiment with TLX5 Mouse lymphona; greater than 100 µM in experiment [10].

On to “(Ethacrynic-η^6:benzylamide)Ru(PTA)Cl2 [Compound 3]”, for which the IC50 in [6] was 14.7 to 20.1 µM; in experiment [1] (HT29 cells) it was 50.7 µM; in [7] it was 2.5 to 3.8 µM; in experiment [8], 7.1 to 9.5 µM; in experiment [2], 32.3 µM; in [9] (setting [11]) it was 4.6 to 5.3 µM. Moreover, the IC50 was 0.8 to 3 µM in the experiment on TLX5 Mouse lymphona, 2.91 µM in [3], 2.3 to 3.8 µM in experiment [10] and 19.9 µM in [4]. Besides, the “Residual GST activity (% control)” value in [5] was 63.57 ± 2.0 % control. Moreover, the “% increase vs Controls (mean survival time)” value in the experiment with TLX5 lymphona cells was found to be 22%. In addition, in the experiment on TLX5 lymphona cells, the “Mean survival time (days ± SD)” value is 12.2 days and 12.2 ± 1.79 days. Further, the “Activity in vivo (in words)” value in the experiment with TLX5 lymphona cells is “active in vivo”. For the same molecule, the “Activity against the Cisplatin-resistant cell line A2780/CDDP (in words)” value in experiment [9] (A2780/CDDP, MTT test) is “active”.

Regarding `N.N.[Cl][Pt][Cl]` [Cisplatin], the IC50 in experiment [6] is 10.6 to 12.9 µM; in [7], 1.3 to 3 µM; in experiment [8] it was 10.5 to 11.8 µM; in [9] (setting [11]) it was greater than 100 µM; in the experiment on TLX5 Mouse lymphona, 0.02 to 0.2 µM; in experiment [10], 4.9 to 32.6 µM. Moreover, in the experiment on TLX5 lymphona cells, the “% increase vs Controls (mean survival time)” value worked out at 18%. The “Mean survival time (days ± SD)” value in the experiment on TLX5 lymphona cells is 11.8 ± 1.79 days. In addition, the “Activity in vivo (in words)” value in the experiment on TLX5 lymphona cells was “effective”.

Take (η^6 cymene)Ru(PTA)(C2O4) [Compound 8]: the IC50 in experiment [1] (HT29 cells) is 267 µM; in experiment [2] it was 1130 µM; in experiment [3], 1170 µM; in experiment [4] it was greater than 1600 µM.
